Reference: patent US20260265238A1, “COMPOUNDS AND PHARMACEUTICAL COMPOSITIONS THAT DEGRADE SWI/SNF-RELATED MATRIX-ASSOCIATED ACTIN-DEPENDENT REGULATOR OF CHROMATIN SUBFAMILY A” (Plexium, Inc., priority 2023, published 2026)

Key:
[1] = target: T1, SMARCA2-HiBiT HeLa cells (protein which is expressed from the SMARCA2 gene) (Homo sapiens, UniProt P51531); assay: SMARCA2 degradation assay (HiBiT-fusion HeLa cell line, 24 h, luminescence); assay type: cell-based
T1 construct: protein which is expressed from the SMARCA2 and SMARCA4 genes; host or cells: HeLa (SMARCA2-HiBiT engineered line)
T1 sequence (P51531 whole entry, the tested form may be a part): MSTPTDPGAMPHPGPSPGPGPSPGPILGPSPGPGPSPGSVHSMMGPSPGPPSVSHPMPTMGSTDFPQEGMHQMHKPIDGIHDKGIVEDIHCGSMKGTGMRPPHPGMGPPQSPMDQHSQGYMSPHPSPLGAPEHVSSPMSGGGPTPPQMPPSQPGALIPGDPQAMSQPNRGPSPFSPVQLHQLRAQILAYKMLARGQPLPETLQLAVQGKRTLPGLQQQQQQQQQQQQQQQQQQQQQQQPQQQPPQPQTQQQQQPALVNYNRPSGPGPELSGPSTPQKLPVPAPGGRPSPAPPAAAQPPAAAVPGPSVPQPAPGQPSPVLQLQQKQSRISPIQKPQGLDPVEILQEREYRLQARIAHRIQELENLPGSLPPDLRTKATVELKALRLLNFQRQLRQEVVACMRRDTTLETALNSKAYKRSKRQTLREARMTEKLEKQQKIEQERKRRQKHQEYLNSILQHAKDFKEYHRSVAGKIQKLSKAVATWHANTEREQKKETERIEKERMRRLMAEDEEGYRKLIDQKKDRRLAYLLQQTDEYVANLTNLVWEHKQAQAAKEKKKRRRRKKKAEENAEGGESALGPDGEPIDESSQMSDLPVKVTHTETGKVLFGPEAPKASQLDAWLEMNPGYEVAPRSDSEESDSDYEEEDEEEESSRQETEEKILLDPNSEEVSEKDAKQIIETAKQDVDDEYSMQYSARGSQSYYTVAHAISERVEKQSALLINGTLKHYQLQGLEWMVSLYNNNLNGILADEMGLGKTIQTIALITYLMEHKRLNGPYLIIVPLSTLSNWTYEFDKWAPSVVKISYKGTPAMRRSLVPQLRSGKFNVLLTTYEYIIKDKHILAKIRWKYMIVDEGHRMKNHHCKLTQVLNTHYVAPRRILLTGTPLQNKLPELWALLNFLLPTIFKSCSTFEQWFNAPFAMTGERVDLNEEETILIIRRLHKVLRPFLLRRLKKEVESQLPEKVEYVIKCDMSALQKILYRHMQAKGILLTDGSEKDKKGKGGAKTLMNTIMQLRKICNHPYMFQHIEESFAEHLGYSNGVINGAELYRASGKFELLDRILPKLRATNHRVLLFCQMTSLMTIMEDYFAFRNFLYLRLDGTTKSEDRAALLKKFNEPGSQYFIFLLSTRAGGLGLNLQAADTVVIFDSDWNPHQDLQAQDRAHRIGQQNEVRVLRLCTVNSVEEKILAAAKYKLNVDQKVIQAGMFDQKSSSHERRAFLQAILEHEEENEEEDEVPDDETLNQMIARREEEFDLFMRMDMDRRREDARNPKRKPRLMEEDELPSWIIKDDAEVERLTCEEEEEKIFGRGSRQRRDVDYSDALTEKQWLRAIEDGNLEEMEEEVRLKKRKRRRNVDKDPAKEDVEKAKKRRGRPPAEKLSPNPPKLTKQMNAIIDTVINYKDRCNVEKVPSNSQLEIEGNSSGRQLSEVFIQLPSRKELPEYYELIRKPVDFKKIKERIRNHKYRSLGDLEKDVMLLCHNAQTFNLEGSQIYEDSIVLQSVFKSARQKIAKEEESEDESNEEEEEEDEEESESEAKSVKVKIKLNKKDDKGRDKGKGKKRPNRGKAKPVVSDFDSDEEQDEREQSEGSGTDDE
Summary of the method: (§1)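 In this 24-hour cellular degradation readout, HiBiT-tagged HeLa lines received compound at up to typically 10 μM down to 300 pM in 10 points. After lysis with LgBiT and substrate, luminescence signals were used to build dose-response curves for DC50.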

[2] = target: T2, SMARCA4-HiBiT HeLa cells (protein which is expressed from the SMARCA4 gene) (Homo sapiens, UniProt P51532); assay: SMARCA4 degradation assay (HiBiT-fusion HeLa cell line, 24 h, luminescence); assay type: cell-based
T2 construct: protein which is expressed from the SMARCA2 and SMARCA4 genes; host or cells: HeLa (SMARCA4-HiBiT engineered line)
T2 sequence (P51532 whole entry, the tested form may be a part): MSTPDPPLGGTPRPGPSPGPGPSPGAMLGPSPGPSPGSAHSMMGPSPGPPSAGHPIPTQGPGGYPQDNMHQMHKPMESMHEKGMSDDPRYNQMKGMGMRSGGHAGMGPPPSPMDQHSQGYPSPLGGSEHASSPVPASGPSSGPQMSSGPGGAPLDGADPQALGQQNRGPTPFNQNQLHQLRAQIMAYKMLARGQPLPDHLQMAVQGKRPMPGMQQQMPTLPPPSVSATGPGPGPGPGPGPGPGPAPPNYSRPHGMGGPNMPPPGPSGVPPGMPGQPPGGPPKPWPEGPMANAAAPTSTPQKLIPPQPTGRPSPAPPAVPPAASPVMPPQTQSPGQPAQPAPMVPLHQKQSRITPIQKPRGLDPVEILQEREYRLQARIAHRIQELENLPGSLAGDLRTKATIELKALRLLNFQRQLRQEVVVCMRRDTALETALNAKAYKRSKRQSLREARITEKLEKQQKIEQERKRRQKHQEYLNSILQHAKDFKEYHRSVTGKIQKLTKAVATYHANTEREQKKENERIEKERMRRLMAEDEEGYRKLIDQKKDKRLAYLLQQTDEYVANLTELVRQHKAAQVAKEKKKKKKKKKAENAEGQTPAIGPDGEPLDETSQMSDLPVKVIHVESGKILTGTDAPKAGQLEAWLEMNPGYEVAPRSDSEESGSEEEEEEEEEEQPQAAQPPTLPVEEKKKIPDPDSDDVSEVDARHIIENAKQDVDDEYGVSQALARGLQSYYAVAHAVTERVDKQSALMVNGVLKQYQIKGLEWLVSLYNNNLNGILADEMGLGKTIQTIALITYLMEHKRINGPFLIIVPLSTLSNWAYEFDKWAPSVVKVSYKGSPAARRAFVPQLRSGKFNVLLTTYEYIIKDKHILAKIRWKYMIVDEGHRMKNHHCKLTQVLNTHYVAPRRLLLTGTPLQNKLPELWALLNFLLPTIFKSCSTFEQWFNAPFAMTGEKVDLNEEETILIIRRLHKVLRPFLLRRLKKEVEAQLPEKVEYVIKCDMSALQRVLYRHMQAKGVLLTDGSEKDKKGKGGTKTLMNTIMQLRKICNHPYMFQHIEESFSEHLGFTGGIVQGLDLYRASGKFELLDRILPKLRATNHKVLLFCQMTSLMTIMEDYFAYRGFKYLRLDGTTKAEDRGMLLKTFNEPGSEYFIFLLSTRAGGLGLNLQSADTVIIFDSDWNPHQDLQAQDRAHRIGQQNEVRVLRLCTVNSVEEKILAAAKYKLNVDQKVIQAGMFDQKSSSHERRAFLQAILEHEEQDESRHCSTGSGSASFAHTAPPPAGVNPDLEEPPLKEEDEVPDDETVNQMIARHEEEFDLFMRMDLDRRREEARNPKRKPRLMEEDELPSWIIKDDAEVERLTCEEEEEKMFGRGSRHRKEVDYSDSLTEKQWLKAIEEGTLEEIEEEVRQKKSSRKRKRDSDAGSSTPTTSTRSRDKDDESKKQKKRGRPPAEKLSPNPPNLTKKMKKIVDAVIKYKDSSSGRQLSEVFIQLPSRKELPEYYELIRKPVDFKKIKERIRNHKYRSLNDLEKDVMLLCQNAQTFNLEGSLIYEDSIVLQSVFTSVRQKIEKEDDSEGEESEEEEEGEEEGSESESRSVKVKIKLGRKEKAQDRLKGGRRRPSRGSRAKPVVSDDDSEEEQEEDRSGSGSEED
Summary of the method: as §1

Nc1nnc(-c2ccccc2O)cc1N1CCCN(c2ccnc(C#CCn3cnc4ccccc43)n2)CC1 [Compound P-150, 2-(5-(4-(2-(3-(1H-benzo[d]imidazol-1-yl)prop-1-yn-1-yl)pyrimidin-4-yl)-1,4-diazepan-1-yl)-6-aminopyridazin-3-yl)phenol]
DC50 [1]: 0.05 to 0.5 µM
DC50 [2]: 0.05 to 0.5 µM
inhibition at 1 µM ([2]; @ 1 μM): 30 to 70%

C[C@@H]1CCN(c2cc(-c3ccccc3O)nnc2N)CCN1c1ccnc(C#CCN2CC3(CCC3(F)F)C2)n1 [Compound P-201, o-{5-[(R)-4-(2-{3-(5,5-difluoro-2-aza-2-spiro[3.3]hcptyl)-1-propynyl}-4-pyrimidinyl)-5-methyl-1,4-diazepan-1-yl]-6-amino-3-pyridazinyl}phenol]
DC50 [1]: 0.05 to 0.5 µM
SMARCA2 % Degradation @ 1 μM ([1]; @ 1 μM): +++ (+++=>70%)
DC50 [2]: 0.05 to 0.5 µM
inhibition at 1 µM ([2]; @ 1 μM): 30 to 70%

CC1(C)COCCN1CC#Cc1nccc(N2CCCN(c3cc(-c4ccccc4O)nnc3N)CC2)n1 [Compound P-317, 0-[6-amino-5-(4-{2-[3-(3,3-dimethyl-4-morpholinyl)-1-propynyl]-4-pyrimidinyl}-1,4-diazepan-1-yl)-3-pyridazinyl]phenol]
DC50 [1]: 0.05 to 0.5 µM
SMARCA2 % Degradation @ 1 μM ([1]; @ 1 μM): ++ (++=30-70%)
DC50 [2]: 0.5 to 5 µM
inhibition at 1 µM ([2]; @ 1 μM): < 30%

C[C@@H]1CCN(c2cc(-c3ccccc3O)nnc2N)CCN1c1ccnc(/C=C/CN2CCC2)n1 [Compound P-166, o-{5-[(R)-4-{2-[3-(1-azetidinyl)-1-propenyl]-4-pyrimidinyl}-5-methyl-1,4-diazepan-1-yl]-6-amino-3-pyridazinyl}phenol]
DC50 [1]: 0.05 to 0.5 µM
SMARCA2 % Degradation @ 1 μM ([1]; @ 1 μM): +++ (+++=>70%)
DC50 [2]: 0.05 to 0.5 µM
inhibition at 1 µM ([2]; @ 1 μM): > 70%

Cc1nn2ccn(CC#Cc3nccc(N4CCN(c5cnnc(-c6ccccc6O)c5)CC[C@H]4C)n3)c(=O)c2c1C [Compound P-235, 5-[3-(4-{ (R)-4-[6-(o-hydroxyphenyl)-4-pyridaziny1]-7-methyl-1,4-diazepan-1-yl}-2-pyrimidinyl)-2-propynyl]-2,3-dimethyl-1,5,7a-triaza-4(5H)-indenone]
DC50 [1]: 0.05 to 0.5 µM
SMARCA2 % Degradation @ 1 μM ([1]; @ 1 μM): + (+=<30%)
DC50 [2]: 0.5 to 5 µM
inhibition at 1 µM ([2]; @ 1 μM): < 30%

Nc1nnc(-c2ccccc2O)cc1N1CCCN(c2ccnc(C#CCNc3nc4ccccc4o3)n2)CC1 [Compound P-26, 2-(6-amino-5-(4-(2-(3-(benzo[d]oxazol-2-ylamino)prop-1-yn-1-yl)pyrimidin-4-yl)-1,4-diazepan-1-yl)pyridazin-3-yl)phenol]
DC50 [1]: 0.05 to 0.5 µM
SMARCA2 % Degradation @ 1 μM ([1]; @ 1 μM): +++ (+++=>70%)
DC50 [2]: 0.05 to 0.5 µM
inhibition at 1 µM ([2]; @ 1 μM): > 70%

C[C@@H]1CCN(c2cc(-c3ccccc3O)nnc2N)CCN1c1ccnc(C#CCNc2ccn(C)n2)n1 [Compound P-331, 0-{5-[(R)-5-methyl-4-{2-[3-(1-methyl-3-pyrazolylamino)-1-propynyl]-4-pyrimidinyl}-1,4-diazepan-1-yl]-6-amino-3-pyridazinyl}phenol]
DC50 [1]: 0.05 to 0.5 µM
SMARCA2 % Degradation @ 1 μM ([1]; @ 1 μM): ++ (++=30-70%)
DC50 [2]: 0.05 to 0.5 µM
inhibition at 1 µM ([2]; @ 1 μM): < 30%

Nc1nnc(-c2ccccc2O)cc1N1CCCN(c2ccnc(C#Cc3cccc4nccn34)n2)CC1 [Compound P-306, 0-[5-(4-{2-[2-(1,3a-diaza-4-indenyl)ethynyl]-4-pyrimidinyl}-1,4-diazepan-1-yl)-6-amino-3-pyridazinyl]phenol]
DC50 [1]: 0.5 to 5 µM
SMARCA2 % Degradation @ 1 μM ([1]; @ 1 μM): ??
DC50 [2]: 0.5 to 5 µM
inhibition at 1 µM ([2]; @ 1 μM): < 30%

C[C@@H]1CCN(c2cc(-c3ccccc3O)nnc2N)CCN1c1nc(C#CCn2cncn2)ncc1F [Compound P-214, o-{5-[(R)-4-{5-fluoro-2-[3-(1H-1,2,4-triazol-1-yl)-1-propynyl]-4-pyrimidinyl}-5-methyl-1,4-diazepan-1-yl]-6-amino-3-pyridazinyl}phenol]
DC50 [1]: 0.05 to 0.5 µM
SMARCA2 % Degradation @ 1 μM ([1]; @ 1 μM): ++ (++=30-70%)
DC50 [2]: 0.05 to 0.5 µM
inhibition at 1 µM ([2]; @ 1 μM): 30 to 70%

CN(C)CC#Cc1nccc(N2CC3CC(Oc4cc(-c5ccccc5O)nnc4N)CC3C2)n1 (centres unmarked) [Compound P-222, o-[6-amino-5-(3-{2-[3-(dimethylamino)-1-propynyl]-4-pyrimidinyl}-3-azabicyclo[3.3.0]oct-7-yloxy)-3-pyridazinyl]phenol]
DC50 [1]: 0.05 to 0.5 µM
SMARCA2 % Degradation @ 1 μM ([1]; @ 1 μM): +++ (+++=>70%)
DC50 [2]: 0.05 to 0.5 µM
inhibition at 1 µM ([2]; @ 1 μM): > 70%

Nc1nnc(-c2ccccc2O)cc1N1CCCN(c2ccnc(C#CCN3CCS(=O)(=O)CC3)n2)CC1 [Compound P-137, 4-(3-(4-(4-(3-amino-6-(2-hydroxyphenyl)pyridazin-4-yl)-1,4-diazepan-1-yl)pyrimidin-2-yl)prop-2-yn-1-yl)thiomorpholine 1,1-dioxide]
DC50 [1]: 0.5 to 5 µM
SMARCA2 % Degradation @ 1 μM ([1]; @ 1 μM): ++ (++=30-70%)
DC50 [2]: 0.5 to 5 µM
inhibition at 1 µM ([2]; @ 1 μM): 30 to 70%

C[C@@H]1CCN(c2cc(-c3ccccc3O)nnc2N)CCN1c1ccnc(C#CC2CN(CC(F)(F)F)C2)n1 [Compound P-173, o-{5-[(R)-5-methyl-4-(2-{2-[1-(2,2,2-trifluoroethyl)-3-azetidinyl]ethynyl}-4-pyrimidinyl)-1,4-diazepan-1-y1]-6-amino-3-pyridazinyl}phenol]
DC50 [1]: < 0.05 µM
SMARCA2 % Degradation @ 1 μM ([1]; @ 1 μM): +++ (+++=>70%)
DC50 [2]: 0.05 to 0.5 µM
inhibition at 1 µM ([2]; @ 1 μM): 30 to 70%

Nc1nnc(-c2ccccc2O)cc1N1CC2C1CCN2c1ccnc(C#CCNC(=O)c2cc3ncccn3n2)n1 (centres unmarked) [Compound P-18, N-(3-(4-(6-(3-amino-6-(2-hydroxyphenyl)pyridazin-4-yl)-2,6-diazabicyclo[3.2.0]heptan-2-yl)pyrimidin-2-y1)prop-2-yn-1-yl)pyrazolo[1,5-a]pyrimidine-2-carboxamide]
DC50 [1]: 0.5 to 5 µM
SMARCA2 % Degradation @ 1 μM ([1]; @ 1 μM): + (+=<30%)
DC50 [2]: 0.05 to 0.5 µM
inhibition at 1 µM ([2]; @ 1 μM): 30 to 70%

CC(C)(C)OC(=O)N1CCN(CC#Cc2nccc(N3CCCN(c4cc(-c5ccccc5O)nnc4N)CC3)n2)CC1 [Compound P-143, tert-butyl 4-(3-(4-(4-(3-amino-6-(2-hydroxyphenyl)pyridazin-4-yl)-1,4-diazepan-1-yl)pyrimidin-2-yl)prop-2-yn-1-yl)piperazine-1-carboxylate]
DC50 [1]: 0.05 to 0.5 µM
SMARCA2 % Degradation @ 1 μM ([1]; @ 1 μM): +++ (+++=>70%)
DC50 [2]: 0.05 to 0.5 µM
inhibition at 1 µM ([2]; @ 1 μM): 30 to 70%

C[C@@H]1CCN(c2cc(-c3ccccc3O)nnc2N)CCN1c1ccnc(C#CCN2C3COCC2C3)n1 [Compound P-184, o-{5-[(R)-5-methyl-4-(2-{3-(3-oxa-6-azabicyclo[3.1.1]hept-6-yl)-1-propynyl}-4-pyrimidinyl)-1,4-diazepan-1-yl]-6-amino-3-pyridazinyl}phenol]
DC50 [1]: < 0.05 µM
SMARCA2 % Degradation @ 1 μM ([1]; @ 1 μM): +++ (+++=>70%)
DC50 [2]: < 0.05 µM
inhibition at 1 µM ([2]; @ 1 μM): 30 to 70%

CN(C)CC#Cc1cc(N2C3CCC2CN(c2cc(-c4ccccc4O)nnc2N)CC3)ccn1 (centres unmarked) [Compound P-382, 0-[6-amino-5-(9-{2-[3-(dimethylamino)-1-propynyl]-4-pyridyl}-3,9-diazabicyclo[4.2.1]non-3-y1)-3-pyridazinyl]phenol]
DC50 [1]: < 0.05 µM
SMARCA2 % Degradation @ 1 μM ([1]; 1 μM): +++ (+++=>70%)
DC50 [2]: < 0.05 µM
inhibition at 1 µM ([2]; 1 μM): > 70%

C[C@@H]1CCN(c2cc(-c3ccccc3O)nnc2N)CCN1c1nc(C#CCn2ccnc2)ncc1F [Compound P-247, o-{5-[(R)-4-{5-fluoro-2-[3-(1-imidazolyl)-1-propynyl]-4-pyrimidinyl}-5-methyl-1,4-diazepan-1-yl]-6-amino-3-pyridaziny1}phenol]
DC50 [1]: 0.05 to 0.5 µM
SMARCA2 % Degradation @ 1 μM ([1]; @ 1 μM): ++ (++=30-70%)
DC50 [2]: 0.05 to 0.5 µM
inhibition at 1 µM ([2]; @ 1 μM): 30 to 70%

CC1(F)CCN(CC#Cc2nccc(N3CCC4(CC3)CCN(c3cc(-c5ccccc5O)nnc3N)C4)n2)C1 (centres unmarked) [Compound P-195, o-[6-amino-5-(8-{2-[3-(3-fluoro-3-methyl-1-pyrrolidinyl)-1-propynyl]-4-pyrimidinyl}-2,8-diaza-2-spiro[4.5]decyl)-3-pyridazinyl]phenol]
DC50 [1]: 0.05 to 0.5 µM
SMARCA2 % Degradation @ 1 μM ([1]; @ 1 μM): ++ (++=30-70%)
DC50 [2]: 0.05 to 0.5 µM
inhibition at 1 µM ([2]; @ 1 μM): 30 to 70%

Cc1c(C(=O)NCC#Cc2nc(N(C)C)cc(N3CCCN(c4cc(-c5ccccc5O)nnc4N)CC3)n2)nn(C)c1C [Compound P-140, N-(3-(4-(4-(3-amino-6-(2-hydroxyphenyl)pyridazin-4-yl)-1,4-diazepan-1-yl)-6-(dimethylamino)pyrimidin-2-yl)prop-2-yn-1-yl)-1,4,5-trimethyl-1H-pyrazole-3-carboxamide]
DC50 [1]: 0.5 to 5 µM
SMARCA2 % Degradation @ 1 μM ([1]; @ 1 μM): ++ (++=30-70%)
DC50 [2]: 0.5 to 5 µM
inhibition at 1 µM ([2]; @ 1 μM): 30 to 70%

CC(C)(C)OC(=O)N1C2CCC1CN(CC#Cc1nccc(N3CCCN(c4cc(-c5ccccc5O)nnc4N)CC3)n1)C2 [Compound P-358, tert-butyl 3-[3-(4-{4-[3-amino-6-(o-hydroxyphenyl)-4-pyridazinyl]-1,4-diazepan-1-y1}-2-pyrimidinyl)-2-propynyl]-3,8-diazabicyclo[3.2.1]octane-8-carboxylate]
DC50 [1]: 0.5 to 5 µM
SMARCA2 % Degradation @ 1 μM ([1]; @ 1 μM): ++ (++=30-70%)
DC50 [2]: 0.5 to 5 µM
inhibition at 1 µM ([2]; @ 1 μM): 30 to 70%

C[C@@H]1CCN(c2cc(-c3ccccc3O)nnc2N)CCN1c1ccnc(C#CCN2C3CCC2COC3)n1 [Compound P-160, o-{5-[(R)-5-methyl-4-(2-{3-(3-oxa-8-azabicyclo[3.2.1]oct-8-yl)-1-propynyl}-4-pyrimidinyl)-1,4-diazepan-1-yl]-6-amino-3-pyridazinyl}phenol]
DC50 [1]: 0.05 to 0.5 µM
SMARCA2 % Degradation @ 1 μM ([1]; @ 1 μM): +++ (+++=>70%)
DC50 [2]: 0.05 to 0.5 µM
inhibition at 1 µM ([2]; @ 1 μM): 30 to 70%
